In ChEMBL document CHEMBL1201862, “PubChem BioAssay data set” (2004):
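Interpolation was linear, between the two tested concentrations surrounding the appropriate level; five concentrations were tested over 48 hours in 96-well plates. Here, GI50 denotes the concentration required for 50% inhibition of growth.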 Active and inactive are the calls of the source. Cut-off read from the data, not from the text of the source: active = GI50 up to about 1.1 µM and inactive = higher.

Assays:
Assay in all cases: NCI-60 cell line screen, 48 h
OVCAR-8 = tested on: OVCAR-8
OVCAR-3 = tested on: OVCAR-3
Malme-3M = tested on: Malme-3M
M14 = tested on: M14
NCI-H23 = tested on: NCI-H23
SNB-19 = tested on: SNB-19
T47D = tested on: T47D
ACHN = tested on: ACHN
NCI-H522 = tested on: NCI-H522
DU-145 = tested on: DU-145
SF-539 = tested on: SF-539
RPMI-8226 = tested on: RPMI-8226
HOP-92 = tested on: HOP-92
COLO 205 = tested on: COLO 205
NCI-H460 = tested on: NCI-H460
SK-MEL-28 = tested on: SK-MEL-28
NCI/ADR-RES = tested on: NCI/ADR-RES
IGROV-1 = tested on: IGROV-1
MOLT-4 = tested on: MOLT-4
KM12 = tested on: KM12

| Structure (SMILES) | GI50 (OVCAR-8) | GI50 (OVCAR-3) | GI50 (Malme-3M) | GI50 (M14) | GI50 (NCI-H23) | GI50 (SNB-19) | GI50 (T47D) | GI50 (ACHN) | GI50 (NCI-H522) | GI50 (DU-145) | GI50 (SF-539) | GI50 (RPMI-8226) | GI50 (HOP-92) | GI50 (COLO 205) | GI50 (NCI-H460) | GI50 (SK-MEL-28) | GI50 (NCI/ADR-RES) | GI50 (IGROV-1) | GI50 (MOLT-4) | GI50 (KM12) |
| --- | --- | --- | --- | --- | --- | --- | --- | --- | --- | --- | --- | --- | --- | --- | --- | --- | --- | --- | --- | --- |
| COC1OC(C)C(NC(=O)OCC(Cl)(Cl)Cl)C2OC(C)(C)OC12 (stereo not given) | > 100 µM (inactive) | > 100 µM (inactive) | > 100 µM (inactive) | > 100 µM (inactive) | > 100 µM (inactive) | > 100 µM (inactive) | > 100 µM (inactive) | > 100 µM (inactive) | > 100 µM (inactive) | > 100 µM (inactive) | > 100 µM (inactive) | > 100 µM (inactive) | > 100 µM (inactive) | > 100 µM (inactive) | > 100 µM (inactive) | > 100 µM (inactive) | > 100 µM (inactive) | > 100 µM (inactive) | > 100 µM (inactive) | > 100 µM (inactive) |
| CCCCC(=C=C1CCCCC1O)C1CCCN1C(=O)OC(C)(C)C (stereo not given) | 18.7 µM (inactive) | 15.7 µM (inactive) | 17.3 µM (inactive) | 16.9 µM (inactive) | 16 µM (inactive) | 16.4 µM (inactive) | 13.2 µM (inactive) | 15.8 µM (inactive) | 17.1 µM (inactive) | 17.5 µM (inactive) | 18.7 µM (inactive) | 12.6 µM (inactive) | 12.8 µM (inactive) | 17.3 µM (inactive) | 15.5 µM (inactive) | 15.5 µM (inactive) | 14.3 µM (inactive) | 16.7 µM (inactive) | 15.8 µM (inactive) | 16.6 µM (inactive) |
| CC1=CP(=O)(c2c(C(C)C)cc(C(C)C)cc2C(C)C)CCC1Cl (stereo not given) | 21.2 µM (inactive) | 10.1 µM (inactive) | 13.9 µM (inactive) | 14 µM (inactive) | 16.6 µM (inactive) | 14.4 µM (inactive) | 11.6 µM (inactive) | 15.9 µM (inactive) | 14.1 µM (inactive) | 19.6 µM (inactive) | 17.1 µM (inactive) | 13.3 µM (inactive) | 13.6 µM (inactive) | 14.9 µM (inactive) | 16 µM (inactive) | 18.6 µM (inactive) | 15 µM (inactive) | 15.4 µM (inactive) | 6.7 µM (inactive) | 17.3 µM (inactive) |
| CCC1(O)CC(OC2CC(N(C)C)C(OC3CC(O)C(OC4OC(C)C(=O)C=C4N)C(C)O3)C(C)O2)c2c(O)c3c(c(O)c2C1C(=O)OC)C(=O)c1cccc(O)c1C3=O (stereo not given) | 0.00398 µM (active) | 0.0225 µM (active) | 0.0114 µM (active) | 0.01 µM (active) | 0.0189 µM (active) | 0.00929 µM (active) | 0.0118 µM (active) | 0.00418 µM (active) | 0.0121 µM (active) | 0.00686 µM (active) | 0.00759 µM (active) | 0.00314 µM (active) | 0.0164 µM (active) | 0.00376 µM (active) | 0.000452 µM (active) | 0.0105 µM (active) | 0.0916 µM (active) | 0.00354 µM (active) | 0.00231 µM (active) | 0.0032 µM (active) |
